From ChEMBL document CHEMBL1150089, “Sodwanones G, H, and I, new cytotoxic triterpenes from a marine sponge” (J Nat Prod, 1995)

Assays:
Assay type in all cases: functional, cell-based
[1] = test system: P388; assay: Cytotoxicity against mouse P388 cells after 3 days; conditions: P388, 72 h
[2] = test system: SK-MEL-28; assay: Cytotoxicity against human SK-MEL-28 cells after 3 days; conditions: SK-MEL-28, 72 h
[3] = test system: HT-29; assay: Cytotoxicity against human HT-29 cells after 3 days; conditions: HT-29, 72 h
[4] = test system: A549; assay: Cytotoxicity against human A549 cells after 3 days; conditions: A549, 72 h

Row | Structure (SMILES) | IC50 [1] [µM] | IC50 [2] [µM] | IC50 [3] [µM] | IC50 [4] [nM]
1 | CC1=C(CC[C@@H]2[C@@]3(CC[C@@H]4OC(C)(C)C(=O)CC[C@]42C)CO3)[C@@]2(C)CCC(=O)C(C)(C)C2=C(O)C1=O [SODWANONE G] | 2 | 2 | 2 | 200
2 | CC1=C(CC[C@@H]2[C@H](C)CC[C@@H]3OC(C)(C)C(=O)CC[C@]32C)[C@@]2(C)CC[C@@H](O)C(C)(C)[C@@H]2CC1=O [SODWANONE H] | 10.5 | 10.5 | 10.5 | 20
3 | CC(C)C(=O)CC[C@@]1(C)[C@H]2CC[C@H](C)[C@]1(CC[C@@]1(C)[C@@H](C)CC[C@@H]3OC(C)(C)[C@]4(O)CC[C@@]31O4)O2 [SODWANONE I] | 20 | 20 | 20 | 20000
